Where “and” joins values, the source holds several entries; their conditions need not be identical. Identical values can stand only once. Toxic doses and inconclusive results are not listed. The calls were made as follows: active = survival T/C of 150% or more; inactive = T/C below 125% in these data.
System: nude mice, LOX melanoma ip, survival T/C
Test: NCI In Vivo Anticancer Drug Screen. Data for tumor model Human Amelanotic Melanoma (LOX) (intraperitoneal) in NU/NU BALB/C (nude) mice
Conditions: endpoint: median survival time, higher = longer survival
Description: The antitumor activity of compounds was measured in mice bearing transplantable tumors. Survival or tumor size were measured and the results are expressed as the measurement made in the treated group (T) divided by the measurement made in the vehicle treated control group (C). The tumor model used in this assay is Human Amelanotic Melanoma (LOX) (intraperitoneal) in NU/NU BALB/C (nude) mice

[1] = dose: 12.5 mg/kg/injection, schedule: Q04DX003 (ip), vehicle: saline with Tween-80
[2] = dose: 25.0 mg/kg/injection, schedule: Q04DX003 (ip), vehicle: saline with Tween-80
[3] = dose: 50.0 mg/kg/injection, schedule: Q04DX003 (ip), vehicle: saline with Tween-80
[4] = dose: 100.0 mg/kg/injection, schedule: Q04DX003 (ip), vehicle: saline with Tween-80
[5] = dose: 200.0 mg/kg/injection, schedule: Q04DX003 (ip), vehicle: saline with Tween-80
[6] = dose: 18.75 mg/kg/injection, schedule: Q04DX003 (ip), vehicle: Klucel (hydroxypropylcellulose) (HPC)
[7] = dose: 37.5 mg/kg/injection, schedule: Q04DX003 (ip), vehicle: Klucel (hydroxypropylcellulose) (HPC)

Measured: T/C

COC(=O)c1ccc(N=NN(C)COC(C)=O)cc1
active: dose: 51.8 mg/kg/injection, schedule: Q04DX003 (ip), vehicle: Klucel (hydroxypropylcellulose) (HPC) 175 % of control | dose: 86.4 mg/kg/injection, schedule: Q04DX003 (ip), vehicle: Klucel (hydroxypropylcellulose) (HPC) 193 % of control | dose: 120.0 mg/kg/injection, schedule: Q04DX003 (ip), vehicle: Klucel (hydroxypropylcellulose) (HPC) 193 % of control | dose: 144.0 mg/kg/injection, schedule: Q04DX003 (ip), vehicle: Klucel (hydroxypropylcellulose) (HPC) 262 % of control | dose: 240.0 mg/kg/injection, schedule: Q04DX003 (ip), vehicle: Klucel (hydroxypropylcellulose) (HPC) 220 % of control and 237 % of control
inactive: dose: 30.0 mg/kg/injection, schedule: Q04DX003 (ip), vehicle: Klucel (hydroxypropylcellulose) (HPC) 118 % of control

Nc1nc(Br)nc2c1ncn2C1CC(O)C(CO)O1 (stereo not drawn)
inactive: [1] 99 % of control | [2] 106 % of control | [3] 104 % of control | [4] 104 % of control | [5] 93 % of control

O=NN(CCCl)C(=O)NCCCl
active: dose: 2.5 mg/kg/injection, schedule: Q01DX015 (ip), vehicle: saline + alcohol 185 % of control | dose: 3.75 mg/kg/injection, schedule: Q01DX005 (ip), vehicle: saline + alcohol 163 % of control | dose: 5.0 mg/kg/injection, schedule: Q01DX015 (ip), vehicle: saline + alcohol 193 % of control | dose: 7.5 mg/kg/injection, schedule: Q01DX005 (ip), vehicle: saline + alcohol 218 % of control | dose: 10.0 mg/kg/injection, schedule: Q04DX003 (ip), vehicle: saline + alcohol 185 % of control | dose: 12.0 mg/kg/injection, schedule: Q04DX003 (iv), vehicle: saline + alcohol 220 % of control | dose: 15.0 mg/kg/injection, schedule: Q01DX005 (ip), vehicle: saline + alcohol 191 % of control | dose: 18.0 mg/kg/injection, schedule: Q04DX003 (iv), vehicle: saline + alcohol 331 % of control | dose: 20.0 mg/kg/injection, schedule: Q01DX001 (ip), vehicle: saline + alcohol 177 % of control | dose: 20.0 mg/kg/injection, schedule: Q04DX003 (ip), vehicle: saline + alcohol 175 % of control | dose: 27.0 mg/kg/injection, schedule: Q04DX003 (iv), vehicle: saline + alcohol 331 % of control | dose: 40.0 mg/kg/injection, schedule: Q01DX001 (ip), vehicle: saline + alcohol 171 % of control | dose: 40.0 mg/kg/injection, schedule: Q04DX003 (ip), vehicle: saline + alcohol 218 % of control | dose: 80.0 mg/kg/injection, schedule: Q01DX001 (ip), vehicle: saline + alcohol 196 % of control
inactive: dose: 1.88 mg/kg/injection, schedule: Q01DX005 (ip), vehicle: saline + alcohol 122 % of control | dose: 5.0 mg/kg/injection, schedule: Q01DX001 (ip), vehicle: saline + alcohol 117 % of control | dose: 12.0 mg/kg/injection, schedule: Q04DX003 (ip), vehicle: saline + alcohol 118 % of control | dose: 18.0 mg/kg/injection, schedule: Q04DX003 (ip), vehicle: saline + alcohol 116 % of control | dose: 27.0 mg/kg/injection, schedule: Q04DX003 (ip), vehicle: saline + alcohol 116 % of control

COc1cc2c(cc1OC)[C@@H]1C(=O)c3ccc4c(c3O[C@@H]1CO2)C[C@H](C(C)C)O4
inactive: [6] 113 % of control | [7] 110 % of control

NCCCSc1ccccc1
inactive: dose: 9.38 mg/kg/injection, schedule: Q01DX009 (ip), vehicle: saline 94 % of control | dose: 18.75 mg/kg/injection, schedule: Q01DX009 (ip), vehicle: saline 99 % of control | dose: 37.5 mg/kg/injection, schedule: Q01DX009 (ip), vehicle: saline 99 % of control | dose: 75.0 mg/kg/injection, schedule: Q01DX009 (ip), vehicle: saline 94 % of control | dose: 150.0 mg/kg/injection, schedule: Q01DX009 (ip), vehicle: saline 89 % of control

COc1cccc2c1C(=O)C1=C(C2=O)c2c(O)cc(CO)cc2C(O)C1O (stereo not drawn)
inactive: dose: 6.25 mg/kg/injection, schedule: Q04DX003 (ip), vehicle: saline + Tween-80 + alcohol 98 % of control | dose: 12.5 mg/kg/injection, schedule: Q04DX003 (ip), vehicle: saline + Tween-80 + alcohol 109 % of control | dose: 25.0 mg/kg/injection, schedule: Q04DX003 (ip), vehicle: saline + Tween-80 + alcohol 112 % of control | dose: 50.0 mg/kg/injection, schedule: Q04DX003 (ip), vehicle: saline + Tween-80 + alcohol 109 % of control

COC1CC2C=C(C)/C=C/C=C/C(=O)NC(c3ccccc3)C/C=C/CCC(O)CC(=O)C2=C1O (stereo not drawn)
active: [7] 187 % of control
inactive: [6] 112 % of control

Cc1c(O)/c(=C\O)c2nc3c(=O)ccc(C(=O)NCCN(C)C)c3[nH]c2c1=O
inactive: dose: 25.0 mg/kg/injection, schedule: Q04DX003 (ip), vehicle: water 95 % of control and 97 % of control | dose: 50.0 mg/kg/injection, schedule: Q04DX003 (ip), vehicle: water 104 % of control and 98 % of control | dose: 86.4 mg/kg/injection, schedule: Q04DX003 (ip), vehicle: water 95 % of control | dose: 100.0 mg/kg/injection, schedule: Q04DX003 (ip), vehicle: water 101 % of control and 104 % of control | dose: 144.0 mg/kg/injection, schedule: Q04DX003 (ip), vehicle: water 99 % of control

COc1cc(C)c(C2NC(=O)c3ccccc3N2)cc1C (stereo not drawn)
active: dose: 600.0 mg/kg/injection, schedule: Q04DX003 (ip), vehicle: Klucel (hydroxypropylcellulose) (HPC) 166 % of control | dose: 1200.0 mg/kg/injection, schedule: Q04DX003 (ip), vehicle: Klucel (hydroxypropylcellulose) (HPC) 192 % of control

COc1ccc(C[C@@H]2NC[C@@H](O)[C@@H]2OC(C)=O)cc1
inactive: dose: 37.5 mg/kg/injection, schedule: Q04DX003 (ip), vehicle: saline with Tween-80 101 % of control | dose: 75.0 mg/kg/injection, schedule: Q04DX003 (ip), vehicle: saline with Tween-80 101 % of control | dose: 150.0 mg/kg/injection, schedule: Q04DX003 (ip), vehicle: saline with Tween-80 103 % of control | dose: 300.0 mg/kg/injection, schedule: Q04DX003 (ip), vehicle: saline with Tween-80 101 % of control

CCC(=O)Sc1ccccc1C(=O)Nc1ccc(Cl)cc1
inactive: [2] 99 % of control | [3] 107 % of control | [4] 110 % of control | [5] 113 % of control

CCCCOCN(COCCCC)C12CC3CC(CC(C3)C1)C2
inactive: [3] 106 % of control | [4] 97 % of control | [5] 114 % of control | dose: 400.0 mg/kg/injection, schedule: Q04DX003 (ip), vehicle: saline with Tween-80 120 % of control

c1ccc2[nH]c(CN(CCN(Cc3nc4ccccc4[nH]3)Cc3nc4ccccc4[nH]3)Cc3nc4ccccc4[nH]3)nc2c1
inactive: dose: 6.25 mg/kg/injection, schedule: Q04DX003 (ip), vehicle: DMSO 102 % of control | dose: 12.5 mg/kg/injection, schedule: Q04DX003 (ip), vehicle: DMSO 110 % of control | dose: 25.0 mg/kg/injection, schedule: Q04DX003 (ip), vehicle: DMSO 113 % of control | dose: 50.0 mg/kg/injection, schedule: Q04DX003 (ip), vehicle: DMSO 111 % of control

COc1cc2c(c(OC)c1OC)-c1cccc(=O)cc1C(NC(C)=O)CC2 (stereo not drawn)
inactive: dose: 12.5 mg/kg/injection, schedule: Q04DX003 (ip), vehicle: saline 104 % of control | dose: 25.0 mg/kg/injection, schedule: Q04DX003 (ip), vehicle: saline 122 % of control | dose: 50.0 mg/kg/injection, schedule: Q04DX003 (ip), vehicle: saline 110 % of control | dose: 100.0 mg/kg/injection, schedule: Q04DX003 (ip), vehicle: saline 106 % of control | dose: 200.0 mg/kg/injection, schedule: Q04DX003 (ip), vehicle: saline 103 % of control

CC[C@@]1(O)C(=O)OCc2c1cc1n(c2=O)Cc2cc3ccccc3nc2-1
active: dose: 5.0 mg/kg/injection, schedule: Q04DX003 (ip), vehicle: saline with Tween-80 284 % of control

CC(=O)OCC1OC(n2ncc(=O)[nH]c2=O)C(OC(C)=O)C1OC(C)=O (stereo not drawn)
inactive: dose: 75.0 mg/kg/injection, schedule: Q04DX003 (ip), vehicle: suspension in saline 99 % of control | dose: 150.0 mg/kg/injection, schedule: Q04DX003 (ip), vehicle: suspension in saline 105 % of control | dose: 300.0 mg/kg/injection, schedule: Q04DX003 (ip), vehicle: suspension in saline 104 % of control | dose: 600.0 mg/kg/injection, schedule: Q04DX003 (ip), vehicle: suspension in saline 99 % of control | dose: 1200.0 mg/kg/injection, schedule: Q04DX003 (ip), vehicle: suspension in saline 95 % of control

CC1c2ccccc2CC(CCN(C)C)c2ccccc21 (stereo not drawn)
inactive: [1] 109 % of control | [2] 114 % of control | [3] 114 % of control | [4] 109 % of control

Clc1cccc(Cl)c1C(Nc1nncs1)Nc1nncs1
inactive: [3] 106 % of control | [4] 106 % of control

From PubChem BioAssay AID280 (DTP/NCI, 2004)
